Source: patent US20130165483A1, “HETEROARYLS AND USES THEREOF” (MILLENNIUM PHARMACEUTICALS, INC., priority 2011, published 2013)

Target: T1, VPS34 (Homo sapiens, UniProt Q8NEB9)
T1 construct: GST (N); host or cells: SF9 insect cells (baculovirus)
Experiment: Human VPS34 enzyme assay (Adapta TR-FRET)
Type: biochemical
Details: for inhibition at 1.11 µM: 1 h, at a 1.11 μM concentration, read-out: VPS34 Percent Inhibition; for IC50: VPS34 enzyme
Protocol: VPS34 (accession number GB:BC033004) was cloned into pDEST20-Thombin as N-terminal GST tagged fusion proteins using the Gateway system (Invitrogen, catalog#11804-013). The sequences were verified before recombinant protein expression using the Baculovirus Expression System with Gateway® Technology.
For expression VPS34 was infected at 1MOI in SF9 cells and harvested 72 hours post infection.
For purification, VPS34 is purified by Glutathione Sepharose 4 Fast Flow (GE Healthcare #17-5132-03) followed by HiTrap Q (GE Healthcare #17-1153-01).
Human VPS34 enzyme assay method
100mL compounds in DMSO are added to wells of a 384 well microtitre plate (Greiner 780076). At room temperature: 5ul VPS34 reaction buffer (Invitrogen Assay Buffer Q (diluted 1 in 5 with nanopure water) plus 2 mM DTT and 2 mM MnCl2) containing ATP (20 uM, Promega) and 200 uM PI—PS substrate (Invitrogen PV5122) is added followed immediately by 5ul VPS34 reaction buffer (as above) containing VPS34 (5 nM, Millennium Protein Sciences Group) and the mixture is incubated with shaking at room temperature for 1 hour. Then 5ul VPS34 stop-detect mix (as per Invitrogen Adapta Assay kit (PV5009) instructions (contains kinase quench buffer, TR-FRET buffer, Adapta Eu anti-ADP antibody and Alexa Fluor 647 ADP tracer)) is added to quench the reaction. The plates are then incubated for 30 minutes at room temperature with shaking and then read on a BMG PheraStar Plus reader.
For the assay methods described above, test compound percent inhibition, at various concentrations, is calculated relative to control (DMSO and EDTA) treated samples. Compound concentration versus percent inhibition curves are fitted to generate IC50 values. One skilled in the art will appreciate that the values generated either as percentage inhibition at a single concentration or IC50 values are subject to experimental variation.

T1 sequence (Q8NEB9 whole entry): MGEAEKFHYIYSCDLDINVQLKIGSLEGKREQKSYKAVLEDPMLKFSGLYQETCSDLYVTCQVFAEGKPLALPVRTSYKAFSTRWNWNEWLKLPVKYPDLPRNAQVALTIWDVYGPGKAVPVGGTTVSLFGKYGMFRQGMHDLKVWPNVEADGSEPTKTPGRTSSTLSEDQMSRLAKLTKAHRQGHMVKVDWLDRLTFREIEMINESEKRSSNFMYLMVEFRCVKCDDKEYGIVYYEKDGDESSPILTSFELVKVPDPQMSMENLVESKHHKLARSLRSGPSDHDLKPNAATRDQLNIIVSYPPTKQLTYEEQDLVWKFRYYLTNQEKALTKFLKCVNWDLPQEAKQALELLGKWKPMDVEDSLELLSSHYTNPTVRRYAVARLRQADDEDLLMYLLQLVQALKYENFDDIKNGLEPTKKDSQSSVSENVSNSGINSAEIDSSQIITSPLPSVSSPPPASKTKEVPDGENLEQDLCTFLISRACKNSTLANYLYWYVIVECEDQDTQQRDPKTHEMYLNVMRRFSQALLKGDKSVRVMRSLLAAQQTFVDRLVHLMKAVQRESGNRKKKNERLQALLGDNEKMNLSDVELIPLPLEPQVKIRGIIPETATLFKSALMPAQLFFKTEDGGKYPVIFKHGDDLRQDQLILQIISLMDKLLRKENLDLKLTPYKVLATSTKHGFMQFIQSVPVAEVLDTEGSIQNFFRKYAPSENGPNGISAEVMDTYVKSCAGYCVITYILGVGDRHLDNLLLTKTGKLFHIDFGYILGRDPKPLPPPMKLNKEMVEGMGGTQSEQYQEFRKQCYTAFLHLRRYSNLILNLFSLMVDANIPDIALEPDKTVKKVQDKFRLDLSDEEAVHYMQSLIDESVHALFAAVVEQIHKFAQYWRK

| SMILES | inhibition at 1.11 µM [%] | IC50 [nM] |
| --- | --- | --- |
| CC(=O)Nc1cc(-c2cc(-c3ccccc3Cl)n(-c3nccs3)n2)ccn1 [I-3, N-[4-[5-(2-chlorophenyl)-1-(1,3-thiazol-2-yl)-1H-pyrazol-3-yl]pyridin-2-yl]acetamide] | 6 | 1000 to 10000 |
| CC(=O)Nc1cc(-c2cc(C(N)=O)n(-c3ccccc3Cl)n2)ccn1 [I-14, 3-(2-acetamidopyridin-4-y1)-1-(2-chlorophenyl)-1H-pyrazole-5-carboxamide] | 45 | 1000 to 10000 |
| CC(=O)Nc1cc(-c2cc(-c3nnc[nH]3)n(-c3ccc(Cl)cc3Cl)n2)ccn1 [I-15, N-{4-[1-(2,4-dichlorophenyl)-5-(4H-1,2,4-triazol-3-yl)-1H-pyrazol-3-yl]pyridin-2-yl}acetamide] | > 99 | < 100 |
| CC(=O)Nc1cc(-c2cc(-c3nnc[nH]3)n(-c3ccccc3Cl)n2)ccn1 [I-21, N-{4-[1-(2-chlorophenyl)-5-(1H-1,2,4-triazol-3-yl)-1H-pyrazol-3-yl]pyridin-2-yl}acetamide] | 96 | 100 to 1000 |
| CCn1cc(-c2nnc[nH]2)cc1-c1ccnc(NC(C)=O)c1 [I-86, N-{4-[1-ethyl-4-(4H-1,2,4-triazol-3-yl)-1H-pyrrol-2-yl]pyridin-2-yl}acetamide] | > 99 | 100 to 1000 |
| CC(=O)Nc1cc(-c2cc(-c3nnc[nH]3)cn2CC2CC2)ccn1 [I-87, N-{4-[1-(cyclopropylmethyl)-4-(4H-1,2,4-triazol-3-yl)-1H-pyrrol-2-yl]pyridin-2-yl}acetamide] | 93 | 100 to 1000 |
| C=CCn1cc(-c2cc(NC(=O)C3CC3)ncc2C)cc1-c1nc[nH]n1 [I-88, N-{4-[1-allyl-5-(1H-1,2,4-triazol-3-yl)-1H-pyrrol-3-yl]-5-methylpyridin-2-yl}cyclopropanecarboxamide] | 69 | < 100 |
| CC(=O)Nc1cc(-c2cc(C(N)=O)n(-c3ccc(N)cc3Cl)c2)c(C)cn1 [I-89, 4-(2-acetamido-5-methylpyridin-4-yl)-1-(4-amino-2-chlorophenyl)-1H-pyrrole-2-carboxamide] | > 99 | < 100 |
| CC(=O)Nc1cc(-c2cc(C(N)=O)n(-c3ncccc3Cl)c2)c(C)cn1 [I-90, 4-(2-acetamido-5-methylpyridin-4-yl)-1-(3-chloropyridin-2-yl)-1H-pyrrole-2-carboxamide] | 39 | 1000 to 10000 |
| CC(=O)Nc1cc(-c2cc(-c3nnc[nH]3)n(CC3CC3)c2)c(C)cn1 [I-91, N-{4-[1-(cyclopropylmethyl)-5-(4H-1,2,4-triazol-3-yl)-1H-pyrrol-3-yl]-5-methylpyridin-2-yl}acetamide] | > 99 | < 100 |
| CC(=O)Nc1cc(-c2cc(C(N)=O)n(CC3CC3)c2)c(C)cn1 [I-92, 4-(2-acetamido-5-methylpyridin-4-yl)-1-(cyclopropylmethyl)-1H-pyrrole-2-carboxamide] | 68 | 100 to 1000 |
| CC(=O)Nc1cc(-c2cc(-c3nc[nH]n3)n(-c3ccccc3Cl)c2)c(C)cn1 [I-93, N-{4-[1-(2-chlorophenyl)-5-(1H-1,2,4-triazol-3-yl)-1H-pyrrol-3-yl]-5-methylpyridin-2-yl}acetamide] | > 99 | < 100 |
| CCCn1cc(-c2cc(NC(=O)C3CC3)ncc2C)cc1-c1nc[nH]n1 [I-94, N-{5-methyl-4-[1-propyl-5-(4H-1,2,4-triazol-3-yl)-1H-pyrrol-3-yl]pyridin-2-yl}cyclopropanecarboxamide] | > 99 | 100 to 1000 |
| CC(=O)Nc1cc(-c2cc(C(N)=O)c(-c3ccnc(NC(C)=O)c3)n2C)ccn1 [I-95, 2,5-bis(2-acetamidopyridin-4-yl)-1-methyl-1H-pyrrole-3-carboxamide] | 18 | 1000 to 10000 |
| CC(=O)Nc1cc(-c2cc(-c3nc[nH]n3)n(-c3ncccc3Cl)c2)c(C)cn1 [I-96] | 96 | 100 to 1000 |
| CC(=O)Nc1cc(-c2cc(C(N)=O)n(-c3ccccc3Cl)c2)c(C)cn1 [I-97, 4-(2-acetamido-5-methylpyridin-4-yl)-1-(2-chlorophenyl)-1H-pyrrole-2-carboxamide] | 96 | 100 to 1000 |
| Cc1cnc(NC(=O)C2CC2)cc1-c1cc(-c2nc[nH]n2)n(-c2ccccc2Cl)c1 [I-98, N-{4-[1-(2-chlorophenyl)-5-(1H-1,2,4-triazol-3-yl)-1H-pyrrol-3-yl]-5-methylpyridin-2-yl}cyclopropanecarboxamide] | > 99 | < 100 |
| Cc1cnc(NC(=O)C2CC2)cc1-c1cc(C(N)=O)n(-c2ccccc2Cl)c1 [I-99, 1-(2-chlorophenyl)-4-{2-[(cyclopropylcarbonyl)amino]-5-methylpyridin-4-yl}-1H-pyrrole-2-carboxamide] | 93 | 100 to 1000 |
| CCn1cc(C(N)=O)cc1-c1ccnc(NC(C)=O)c1 [I-100, 5-(2-acetamidopyridin-4-yl)-1-ethyl-1H-pyrrole-3-carboxamide] | 54 | 100 to 1000 |
| CC(=O)Nc1cc(-c2cc(-c3ccccc3C)c(-c3nnc[nH]3)[nH]2)ccn1 [I-101, N-{4-[4-(2-methylphenyl)-5-(4H-1,2,4-triazol-3-yl)-1H-pyrrol-2-yl]pyridin-2-yl}acetamide] | 60 | 100 to 1000 |
| CC(=O)Nc1cc(-c2cc(-c3ccccc3C)c(C(N)=O)[nH]2)ccn1 [I-102, 5-(2-acetamidopyridin-4-yl)-3-(2-methylphenyl)-1H-pyrrole-2-carboxamide] | 96 | 100 to 1000 |
| CC(=O)Nc1cc(-c2cc(-c3ccccc3C)c(-c3nc[nH]n3)n2C)ccn1 [I-103, N-{4-[1-methyl-4-(2-methylphenyl)-5-(1H-1,2,4-triazol-3-yl)-1H-pyrrol-2-yl]pyridin-2-yl}acetamide] | 39 | 1000 to 10000 |
| CC(=O)Nc1cc(-c2cc(-c3ccccc3C)c(C(N)=O)n2C)ccn1 [I-104, 5-(2-acetamidopyridin-4-yl)-1-methyl-3-(2-methylphenyl)-1H-pyrrole-2-carboxamide] | 7 | 1000 to 10000 |
